Where a chain is given by its changes, count along the chain named. “And” between values parts separate entries of the source, which are not always exact repeats. Equal entries are not always repeated. Where two headings read alike, the source gives them in different places.
Assays:
[1] = target: T1, GluE1αA wildtype receptor (Trichoplax adhaerens, UniProt B3SAW0); details: wild type, 10 mM glycine
T1 sequence (B3SAW0 1-341): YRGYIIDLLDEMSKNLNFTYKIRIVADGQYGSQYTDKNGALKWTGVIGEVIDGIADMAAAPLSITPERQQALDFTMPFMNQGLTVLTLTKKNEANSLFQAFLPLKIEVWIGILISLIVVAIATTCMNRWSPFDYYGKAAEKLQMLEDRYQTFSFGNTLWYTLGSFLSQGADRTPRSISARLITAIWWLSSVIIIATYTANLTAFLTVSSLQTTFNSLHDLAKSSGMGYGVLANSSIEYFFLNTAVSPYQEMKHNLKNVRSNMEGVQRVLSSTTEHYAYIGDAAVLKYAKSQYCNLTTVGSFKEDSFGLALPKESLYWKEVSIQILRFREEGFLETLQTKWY

GluE1αA m3 variant = target: T2, GluE1αA m3 variant (Trichoplax adhaerens, UniProt B3SAW0, F306Y/I236T/S234G); details: 10 mM glutamate
T2 sequence (B3SAW0 1-341 S234G/I236T/F306Y): T1 sequence (B3SAW0 1-341) with S234G, I236T, F306Y

[2] = target: T3, T. adhaerens GluE1αA receptor (wildtype) (Trichoplax adhaerens, UniProt B3SAW0); test: whole-cell patch clamp, agonist-evoked currents in CHO-K1 cells; format: cell-based
[3] = system: GluE1αA m1 variant (F732Y); format: cell-based, Trichoplax adhaerens
Description: (§1) As noted, a model has been put forward that defines iGluR ligand specificity based on a set of key amino acids in the LBD of iGluRs[11]. […] To the best of our knowledge, whether these few positions are indeed solely responsible for ligand specificity, and moreover, can be altered to switch specificity for natural ligands, has not been experimentally tested. […] We also created a triple mutant, with an additional phenylalanine to tyrosine mutation at position 732 (F732Y; m3 variant), to make the T. adhaerens epsilon receptor resemble GluN2A and GluA2 receptors from human, reasoning that this mutation might enhance glutamate sensitivity. We also generated a single F732Y mutant (m1 variant), to assess the contribution of this amino acid to ligand specificity in isolation.
(§2) The cDNA of the T. adhaerens GluE1αA receptor was cloned into the mammalian expression vector pIRES2-EGFP, using a 5’ nested primer that inserted a mammalian consensus Kozak sequence of […] (Supplementary Table 5). Several mutants/variants of this receptor where also prepared via site directed mutagenesis using standard procedures and primers listed in Supplementary Table 5. For electrophysiological comparisons, we commissioned GenScript (USA) to synthesize the cDNA of the human GluA2 […] receptor (NCBI accession number NP_001077088.2), which was cloned into the pIRES2-EGFP vector with a Kozak sequence flanking the start codon and restriction enzymes SalI and BamHI at the 5’ and 3’ ends of the cDNA, respectively. Receptor cDNAs in the various pIRES2 constructs were transfected into Chinese Hamster Ovary-K1 (CHO-K1; Sigma) cells cultured in Dulbecco’s Modified Eagle Medium Nutrient Mixture F-12 (DMEM/F12) supplemented with 10% Fetal Bovine Serum (FBS) and 1% penicillin-streptomycin at 37°C. Transfections were done with 2 μg of plasmid vector using the transfecting reagent PolyJet^TM (SignaGen Laboratories, USA) according to the manufacturer’s instructions and plated onto glass coverslips in 35 mm dishes the next day. Transfected cells were incubated at 28°C for 2 to 4 days, then coverslips were transferred to a new 60 mm dish with 5 mL of external recording solution. […] Agonists and pharmacological compounds used in this study were dissolved in corresponding external solutions. […] Patch pipettes were pulled using a P-1000 micropipette puller (Sutter, USA), from thick-walled borosilicate tubing (1.5 and 0.86 outer and inner diameter, respectively), to a resistance of between 1 and 6 megaohms.

[4] = system: GluE1αA m2 variant (S653G, I655T); format: cell-based, Trichoplax adhaerens
Description: as §1, §2

[5] = system: GluE1αA m3 variant (S653G, I655T, F732Y); format: cell-based, Trichoplax adhaerens; details: m3
Description: as §1, §2

[6] = target: T3, T. adhaerens GluE1αA receptor (wildtype); details: 2 s pulse of 3 mM glycine, wash of increasing duration, 2 s test pulse; single exponential; n = 10
Description: as §2

GluE1αA wildtype [7] = format: cell-based, Trichoplax adhaerens
GluE1αA S642Q [8] = target: T4, GluE1αA S642Q (Trichoplax adhaerens, UniProt B3SAW0, S167Q); format: cell-based
T4 sequence (B3SAW0 1-341 S167Q): T1 sequence (B3SAW0 1-341) with S167Q

GluE1αA S642N [9] = target: T5, GluE1αA S642N (Trichoplax adhaerens, UniProt B3SAW0, S167N); format: cell-based
T5 sequence (B3SAW0 1-341 S167N): T1 sequence (B3SAW0 1-341) with S167N

GluE1αA S642R [10] = format: cell-based, Trichoplax adhaerens
GluE1αA D646A [11] = format: cell-based, Trichoplax adhaerens
GluE1αA S642Q plus D646A [12] = format: cell-based, Trichoplax adhaerens
GluE1αA wildtype [13] = format: cell-based, Trichoplax adhaerens; remark: listed apart in the source
GluE1αA S642Q [14] = target: T4, GluE1αA S642Q; format: cell-based; remark: listed apart in the source
GluE1αA S642N [15] = target: T5, GluE1αA S642N; format: cell-based; remark: listed apart in the source
GluE1αA S642R [16] = format: cell-based, Trichoplax adhaerens; remark: listed apart in the source
GluE1αA D646A [17] = format: cell-based, Trichoplax adhaerens; remark: listed apart in the source
GluE1αA S642Q plus D646A [18] = format: cell-based, Trichoplax adhaerens; remark: listed apart in the source
[19] = m1, ligand 10 mM, normalized to glycine

For `N#Cc1cc2[nH]c(=O)c(=O)[nH]c2cc1[N+](=O)[O-]` [CNQX, 6-cyano-7-nitroquinoxaline-2,3-dione], the “current normalized to peak amplitude in the absence of CNQX, Avg” value (shortened to “current normalized to peak amplitude … Avg”) ([1]; CNQX 1 µM) was 0.99, the “current normalized to peak amplitude in the absence of CNQX, single recording” value (shortened to “current normalized … single recording”) ([1]; CNQX 1 µM) was 1.07 and 0.91 and 0.98 and 1.00 and 1.01 and 0.97 and 0.94 and the “current normalized to peak amplitude … Avg” value ([1]; CNQX 10 µM) was 0.86. For the same compound, the “current normalized … single recording” value ([1]; CNQX 10 µM) was 0.80 and 0.79 and 0.93 and 0.89 and 0.85 and 0.87, the “current normalized to peak amplitude … Avg” value ([1]; CNQX 100 µM) was 0.29 and the “current normalized to peak amplitude … Avg” value (GluE1αA m3 variant; CNQX 1 µM) was 1.22. For the same compound, the “current normalized … single recording” value (GluE1αA m3 variant; CNQX 1 µM) was 1.09 and 1.17 and 1.15 and 0.98 and 1.22 and 1.35 and 1.57, the “current normalized to peak amplitude … Avg” value (GluE1αA m3 variant; CNQX 10 µM) was 0.42 and the “current normalized … single recording” value (GluE1αA m3 variant; CNQX 10 µM) was 0.44 and 0.38 and 0.42 and 0.52 and 0.35. For the same compound, the “current normalized to peak amplitude … Avg” value (GluE1αA m3 variant; CNQX 100 µM) was 0.08.

In the case of `NCC(=O)O` [glycine], the “activation of ligand-gated current” value [2] is reported as “activated”, the “normalized peak inward current, Avg” value [2] is reported as 1.02 and 1.00 and the sensitivity to agonist [2] is reported as “robust currents”. The EC50 ([3]; m1 (F732Y) variant, dose response of normalized current) was 300 ± 40 µM, the “normalized current (dose response), Avg” value ([3]; m1, glycine 0.03 mM) was 0.00429 and the “normalized current (dose response), single recording” value ([3]; m1, glycine 0.03 mM) was 0.00434 and 0.00425. The “normalized current (dose response), Avg” value ([3]; m1, glycine 0.1 mM) was 0.0331, the “normalized current (dose response), Avg” value ([3]; m1, glycine 0.3 mM) was 0.50 and the “normalized current (dose response), single recording” value ([3]; m1, glycine 0.3 mM) was 0.36 and 0.35 and 0.56 and 0.51 and 0.57 and 0.65 and 0.62. For the same compound, the “normalized current (dose response), Avg” value ([3]; m1, glycine 1 mM) was 0.98, the “normalized current (dose response), single recording” value ([3]; m1, glycine 1 mM) was 0.97 and 1.00 and 0.96 and the “normalized current (dose response), Avg” value ([3]; m1, glycine 3 mM) was 0.99. For the same compound, the “normalized current (dose response), single recording” value ([3]; m1, glycine 3 mM) was 1.00 and 0.99 and 0.96, the “normalized current (dose response), Avg” value ([3]; m1, glycine […]) was 0.85 and the “normalized peak inward current, Avg” value [3, 19] was 1.00. For the same compound, the “normalized peak inward current, single recording” value [3, 19] was 0.93 and 1.04 and 1.03 and 0.96, the “normalized peak inward current, Avg” value [4] was 0.37 and 0.38 and the “normalized peak inward current, single recording” value [4] was 0.36 and 0.37 and 0.44 and 0.40 and 0.28 and 0.49 and 0.42 and 0.34. The “normalized peak inward current, Avg” value ([5]; agonist 1 mM) was 0.0155, the “normalized peak inward current, Avg” value ([5]; ligand 10 mM, normalized to glutamate) was 0.0446 and the “time constant of recovery from desensitization (τ)” value [6] was 184 ± 45 ms.

For `[Cs+]` [Cs], the “Avg of recordings (Figure S7c, G-V, normalized)” value (GluE1αA wildtype [7]) was 0.58 and 0.69 and 0.78 and 0.80 and 1.00 and 0.93 and 0.77 and 0.60, the pCs/pNa (GluE1αA wildtype [7]) was 0.95 and 0.96 and 0.99 and 0.93 and 0.92 and the pCs/pNa (GluE1αA S642Q [8]) was 0.77 and 1.08 and 1.06 and 1.15 and 1.01 and 1.25. For the same compound, the pCs/pNa (GluE1αA S642N [9]) was 1.10 and 1.06 and 1.08 and 0.97 and 0.98 and 0.82, the pCs/pNa (GluE1αA S642R [10]) was 0.92 and 0.78 and 0.83 and 0.84 and 0.81 and 0.79 and 0.82 and the pCs/pNa (GluE1αA D646A [11]) was 1.01 and 0.96 and 0.98 and 0.97 and 1.08. For the same compound, the pCs/pNa (GluE1αA S642Q plus D646A [12]) was 1.15 and 1.09 and 1.10 and 1.24 and 1.08 and 1.02, the pCs/pCa (GluE1αA wildtype [13]) was 1.08 and 0.98 and 1.16 and 1.36 and 1.19 and 1.14 and the pCs/pCa (GluE1αA S642Q [14]) was 8.99 and 7.25 and 7.15 and 8.09 and 7.84 and 7.74 and 7.89. The pCs/pCa (GluE1αA S642N [15]) was 5.26 and 5.24 and 5.82 and 3.13 and 4.33 and 4.04, the pCs/pCa (GluE1αA S642R [16]) was 2.85 and 2.43 and 1.93 and 2.69 and 2.80 and 3.78 and the “Cs vs Ca, Avg (Figure S8e, normalized G-V)” value (GluE1αA D646A [17]) was 1.00 and 0.97 and 0.90 and 0.81 and 0.79 and 0.75 and 0.88. For the same compound, the pCs/pCa (GluE1αA D646A [17]) was 1.12 and 1.10 and 0.98 and 1.02 and 1.05 and 0.97, the “Cs vs Ca, Avg (Figure S8e, normalized G-V)” value (GluE1αA S642Q plus D646A [18]) was 1.00 and 1.03 and 0.98 and 1.02 and 1.15 and 1.27 and 1.40 and 1.41 and the pCs/pCa (GluE1αA S642Q plus D646A [18]) was 7.48 and 6.98 and 7.28 and 7.47 and 4.49 and 4.01 and 6.97 and 6.40.

From paper PMC12226733, “Evolution of iGluR ligand specificity, polyamine regulation, and ion selectivity inferred from a placozoan epsilon receptor” (Communications Biology, 2025)
